Usually EC50 stands for the concentration giving half of the maximal effect.

One test relates to wild-type HIV-1 strain IIIB. Nature of the test: microbe, parasite or virus in culture. It is filed as cell-based. The conditions noted are these: Human immunodeficiency virus 1, IIIB.
Regarding `CCOP(=O)(CCN1CCN(CC(NC(=O)OC2COC3OCCC23)C(O)CN(CC(C)C)S(=O)(=O)c2ccc(OC)cc2)CC1)OCC` (stereo not shown), the EC50 fell in the range of 0.05 to 0.5 µM.
`CCOP(=O)(COC1CCN(CC(NC(=O)OC2COC3OCCC23)C(O)CN(CC(C)C)S(=O)(=O)c2ccc(OC)cc2)CC1)OCC` (stereo not shown): the EC50 was in the range of 0.05 to 0.5 µM.
On the same count and under the same terms, the same measure for `CCOP(=O)(CN1CC=C(CC(NC(=O)OC2COC3OCCC23)C(O)CN(CC(C)C)S(=O)(=O)c2ccc(OC)cc2)CC1)OCC` (stereo not shown): less than 0.05 µM; for `COc1ccc(S(=O)(=O)N(CC(C)C)CC(O)C(CC2=CCN(CCP(=O)(OC)OC)CC2)NC(=O)OC2COC3OCCC23)cc1` (stereo not shown): 0.05 to 0.5 µM; for `COc1ccc(S(=O)(=O)N(CC(C)C)CC(O)C(CC2=CCN(CCP(=O)(OCc3ccccc3)OCc3ccccc3)CC2)NC(=O)OC2COC3OCCC23)cc1` (stereo not shown): less than 0.05 µM.
Same read-out and setting: the same measure for `CCOP(=O)(CCC1=CCN(CC(NC(=O)OC2COC3OCCC23)C(O)CN(CC(C)C)S(=O)(=O)c2ccc(OC)cc2)CC1)OCC` (stereo not shown): less than 0.05 µM; for `CCOP(=O)(Cc1ccc(NCC(NC(=O)OC2COC3OCCC23)C(O)CN(CC(C)C)S(=O)(=O)c2ccc(OC)cc2)cc1)OCC` (stereo not shown): less than 0.05 µM; for `COc1ccc(S(=O)(=O)N(CC(C)C)CC(O)C(CNc2ccc(CP(=O)(OCc3ccccc3)OCc3ccccc3)cc2)NC(=O)OC2COC3OCCC23)cc1` (stereo not shown): less than 0.05 µM.
The same measure, in the same setting: the same measure for `CCOP(=O)(Cc1ccc(N(C)CC(NC(=O)OC2COC3OCCC23)C(O)CN(CC(C)C)S(=O)(=O)c2ccc(OC)cc2)cc1)OCC` (stereo not shown): less than 0.05 µM; for `CCOP(=O)(Cc1ccc2c(c1)CCN(CC(NC(=O)OC1COC3OCCC13)C(O)CN(CC(C)C)S(=O)(=O)c1ccc(OC)cc1)C2)OCC` (stereo not shown): less than 0.05 µM.
`CCOP(=O)(CNc1ccc(CC(NC(=O)OC2COC3OCCC23)C(O)CN(CC(C)C)S(=O)(=O)c2ccc(OC)cc2)cc1)OCC` (stereo not shown) displayed an EC50 of less than 0.05 µM.
Still for that read-out and setting: the same measure for `COc1ccc(S(=O)(=O)N(CC(C)C)CC(O)C(Cc2ccc(NCP(=O)(OCc3ccccc3)OCc3ccccc3)cc2)NC(=O)OC2COC3OCCC23)cc1` (stereo not shown): less than 0.05 µM; for `COc1ccc(S(=O)(=O)N(CC(C)C)CC(O)C(Cc2ccc(OCc3ccccc3)cc2)NC(=O)OC2COC3OCCC23)cc1` (stereo not shown): less than 0.05 µM.
For the compound `COc1ccc(S(=O)(=O)N(CCN2CCOCC2)CC(O)C(Cc2ccc(OCP(=O)(OCc3ccccc3)OCc3ccccc3)cc2)NC(=O)OC2COC3OCCC23)cc1` (stereo not shown), the EC50 lay within 0.05 to 0.5 µM.
`COc1ccc(S(=O)(=O)N(CC2CCN(C=O)CC2)CC(O)C(Cc2ccc(OCP(=O)(OCc3ccccc3)OCc3ccccc3)cc2)NC(=O)OC2COC3OCCC23)cc1` (stereo not shown) came in with an EC50 of 0.05 to 0.5 µM.
The compound `Cc1ccc(C(=O)NC(Cc2ccc(OCP(=O)(OCc3ccccc3)OCc3ccccc3)cc2)C(O)CN(CC(C)C)S(=O)(=O)c2ccc(N)cc2)cc1O` (stereo not shown) yielded an EC50 of 0.05 to 0.5 µM.
On the same count and under the same terms, the same measure for `CCOP(=O)(COc1ccc(CC(NC(=O)OC2COC3OCCC23)C(O)CN(CC(C)C)S(=O)(=O)c2ccc(N)cc2)cc1)OCC` (stereo not shown): less than 0.05 µM; for `CCOP(=O)(COc1ccc(CC(NC(=O)OC2COC3OCCC23)C(O)CN(CC(C)C)S(=O)(=O)c2ccc([N+](=O)[O-])cc2)cc1)OCC` (stereo not shown): less than 0.05 µM; for `CCNc1ccc(S(=O)(=O)N(CC(C)C)CC(O)C(Cc2ccc(OCP(=O)(OCC)OCC)cc2)NC(=O)OC2COC3OCCC23)cc1` (stereo not shown): less than 0.05 µM.
`CC(C)CN(CC(O)C(Cc1ccc(OCP(=O)(OCc2ccccc2)OCc2ccccc2)cc1)NC(=O)OC1COC2OCCC12)S(=O)(=O)c1ccc(N)cc1` (stereo not shown) had an EC50 of less than 0.05 µM.
Still for that read-out and setting: the same measure for `CCOP(=O)(COc1ccc(CC(NC(=O)OC2COC3OCCC23)C(O)CN(CC(C)C)S(=O)(=O)c2cccc(N)c2)cc1)OCC` (stereo not shown): 0.05 to 0.5 µM; for `CC(C)CN(CC(O)C(Cc1ccc(OCP(=O)(OCc2ccccc2)OCc2ccccc2)cc1)NC(=O)OC1COC2OCCC12)S(=O)(=O)c1cccc(N)c1` (stereo not shown): less than 0.05 µM.
Still for that read-out and setting: the same measure for `CCCCOC(=O)C(C)OP(=O)(COc1ccc(CC(NC(=O)OC2COC3OCCC23)C(O)CN(CC(C)C)S(=O)(=O)c2cccc(N)c2)cc1)Oc1ccccc1` (stereo not shown): 0.05 to 0.5 µM; for `CC(C)CN(CC(O)C(Cc1ccc(OCP(=O)(OCc2ccccc2)OCc2ccccc2)cc1)NC(=O)OC1COC2OCCC12)S(=O)(=O)c1ccccc1` (stereo not shown): less than 0.05 µM; for `CC(C)CN(CC(O)C(Cc1ccc(OCP(=O)(OCc2ccccc2)OCc2ccccc2)cc1)NC(=O)OC1COC2OCCC12)S(=O)(=O)c1ccc(F)cc1` (stereo not shown): less than 0.05 µM.
The compound `CC(C)CN(CC(O)C(Cc1ccc(OCP(=O)(OCc2ccccc2)OCc2ccccc2)cc1)NC(=O)OC1COC2OCCC12)S(=O)(=O)c1ccc(C(F)(F)F)cc1` (stereo not shown) displayed an EC50 of less than 0.05 µM.
On the same count and under the same terms, the same measure for `CC(C)CN(CC(O)C(Cc1ccc(OCP(=O)(OCc2ccccc2)OCc2ccccc2)cc1)NC(=O)OC1COC2OCCC12)S(=O)(=O)c1ccc(OC(F)(F)F)cc1` (stereo not shown): less than 0.05 µM; for `CC(C)CN(CC(O)C(Cc1ccc(OCP(=O)(OCc2ccccc2)OCc2ccccc2)cc1)NC(=O)OC1COC2OCCC12)S(=O)(=O)c1ccc(C#N)cc1` (stereo not shown): less than 0.05 µM.
`CC(C)CN(CC(O)C(Cc1ccc(OCP(=O)(OCc2ccccc2)OCc2ccccc2)cc1)NC(=O)OC1COC2OCCC12)S(=O)(=O)N1CCN(C)CC1` (stereo not shown): the EC50 was in the range of 0.05 to 0.5 µM.
On the same count and under the same terms, the same measure for `CC(C)CN(CC(O)C(Cc1ccc(OCP(=O)(OCc2ccccc2)OCc2ccccc2)cc1)NC(=O)OC1COC2OCCC12)C(=O)OC(C)(C)C` (stereo not shown): 0.05 to 0.5 µM; for `CC(C)CN(CC(O)C(Cc1ccccc1)NC(=O)OC1COC2OCCC12)S(=O)(=O)c1ccc(O)cc1` (stereo not shown): less than 0.05 µM; for `CC(C)CN(CC(O)C(Cc1ccccc1)NC(=O)OC1COC2OCCC12)S(=O)(=O)c1cccc(O)c1` (stereo not shown): less than 0.05 µM.
Regarding `CC(C)CN(CC(O)C(Cc1ccccc1)NC(=O)OC1COC2OCCC12)S(=O)(=O)c1cccc(OCP(=O)(O)O)c1` (stereo not shown), the EC50 was in the range of 0.05 to 0.5 µM.
On the same count and under the same terms, the same measure for `COc1ccc(S(=O)(=O)N(CC(C)C)CC(O)C(Cc2ccccc2)NC(=O)OC2COC3OCCC23)cc1O` (stereo not shown): less than 0.05 µM; for `COc1ccc(S(=O)(=O)N(CC(C)C)CC(O)C(Cc2ccccc2)NC(=O)OC2COC3OCCC23)cc1OCP(=O)(O)O` (stereo not shown): 0.05 to 0.5 µM.
`CCOP(=O)(COc1cc(S(=O)(=O)N(CC(C)C)CC(O)C(Cc2ccccc2)NC(=O)OC2COC3OCCC23)ccc1OC)OCC` (stereo not shown): the EC50 was in the range of 0.05 to 0.5 µM.
The same measure, in the same setting: the same measure for `CCOP(=O)(COc1cc(S(=O)(=O)N(CC(C)C)CC(O)C(Cc2ccccc2)NC(=O)OC2COC3OCCC23)ccc1O)OCC` (stereo not shown): 0.05 to 0.5 µM.
In turn, `CCOP(=O)(COc1ccc(S(=O)(=O)N(CC(C)C)CC(O)C(Cc2ccc(N(C)C)cc2)NC(=O)OC2COC3OCCC23)cc1)OCC` (stereo not shown) [NMe2, OEt] displayed an EC50 of less than 0.05 µM.
In turn, `CC(C)CN(CC(O)C(Cc1ccc(OCCN(C)C)cc1)NC(=O)OC1COC2OCCC12)S(=O)(=O)c1ccc(OCP(=O)(O)O)cc1` (stereo not shown) [OC2H4NMe2, OH] displayed an EC50 of 0.5 to 5 µM.
Still for that read-out and setting: the same measure for `CC(C)CN(CC(O)C(Cc1ccc(OCCN(C)C)cc1)NC(=O)OC1COC2OCCC12)S(=O)(=O)c1ccc(OCP(=O)(OCc2ccccc2)OCc2ccccc2)cc1` (stereo not shown) [OC2H4—NMe2, OBn]: 0.05 to 0.5 µM; for `CC(C)CN(CC(O)C(Cc1ccc(O)cc1)NC(=O)OC1COC2OCCC12)S(=O)(=O)c1ccc(OCP(=O)(OCc2ccccc2)OCc2ccccc2)cc1` (stereo not shown) [OH, OBn]: 0.05 to 0.5 µM.
On to `CC(C)CN(CC(O)C(Cc1ccc(O)cc1)NC(=O)OC1COC2OCCC12)S(=O)(=O)c1cccc(N)c1` (stereo not shown) [OH, m-NH2], for which the EC50 was in the range of 0.05 to 0.5 µM.
In turn, `CC(C)CN(CC(O)C(Cc1ccc(O)cc1)NC(=O)OC1COC2OCCC12)S(=O)(=O)c1ccc(N)cc1` (stereo not shown) [OH, p-NH2] yielded a 50% effective concentration (EC50) of 0.05 to 0.5 µM.
The same measure, in the same setting: the same measure for `CC(C)CN(C[C@@H](O)[C@H](Cc1ccccc1)NC(=O)O[C@H]1CO[C@H]2OCC[C@H]21)S(=O)(=O)c1ccc(OCP(=O)(Oc2ccccc2)O[C@@H](C)C(=O)OC(C)C)cc1` (stereo partly shown) [OPh, Lac-iPr]: 0.5 to 5 µM; for `COc1ccc(S(=O)(=O)N(CC(C)C)C[C@@H](OP(=O)(O)O)[C@H](Cc2ccccc2)NC(=O)O[C@H]2CO[C@H]3OCC[C@H]32)cc1` [Phosphate Prodrug of 94-003]: less than 0.05 µM; for `CC(C)CN(C[C@@H](OP(=O)(O)O)[C@H](Cc1ccccc1)NC(=O)O[C@H]1CCOC1)S(=O)(=O)c1ccc(N)cc1` [Phosphate Prodrug of Ampenavir]: 0.05 to 0.5 µM.
As to `COc1ccc(S(=O)(=O)N(CC(C)C)CC(O)C(Cc2ccc(P(=O)(O)O)cc2)NC(=O)OC2COC3OCCC23)cc1` (stereo not shown) [drawing 1770 R1=OH R2=OH], the EC50 was more than 5 µM.
On the same count and under the same terms, the same measure for `COc1ccc(S(=O)(=O)N(CC(C)C)CC(O)C(Cc2ccc(OCP(=O)(OCc3ccccc3)OC(C)C(=O)OCc3ccccc3)cc2)NC(=O)OC2COC3OCCC23)cc1` (stereo not shown) [drawing 1775 R1=OBn R2=Lac-Bn]: 0.05 to 0.5 µM.

Still in this test, the particulars now being: Human immunodeficiency virus 1, IIIB, MT2, 120 h, read-out: Anti-HIV-1 Cell Culture Activity EC50.
`CCCCOC(=O)CNP(=O)(COc1ccc(CC(NC(=O)OC2COC3OCCC23)C(O)CN(CC(C)C)S(=O)(=O)c2ccc(OC)cc2)cc1)NCC(=O)OCCCC` (stereo not shown) [Compound 16b]: the EC50 was 0.0175 ± 0.0105 µM.

Still in this test, the particulars now being: Human immunodeficiency virus 1, IIIB, class symbols.
Consider `CCOC(=O)C(C)OP(=O)(COc1ccc2c(c1)CCN(CC(NC(=O)OC1COC3OCCC13)C(O)CN(CC(C)C)S(=O)(=O)c1ccc(OC)cc1)C2)Oc1ccccc1` (stereo not shown), for which the EC50 fell in the range of 0.05 to 0.5 µM.
On the same count and under the same terms, the same measure for `COC(=O)C(C)OP(=O)(COc1ccc(CC(NC(=O)OC2COC3OCCC23)C(O)CN(CC(C)C)S(=O)(=O)c2ccc(OC)cc2)cc1)Oc1ccccc1` [drawing 1775 R1=OPh R2=(R)Lac-Me]: less than 0.05 µM.

Staying with this test, now noted: read-out: Anti-HIV-1 Cell Culture Activity EC50.
With `CCCCOC(=O)C(CC(C)C)NP(=O)(COc1ccc(CC(NC(=O)OC2COC3OCCC23)C(O)CN(CC(C)C)S(=O)(=O)c2ccc(OC)cc2)cc1)NC(CC(C)C)C(=O)OCCCC` (stereo not shown) [Example 16h], the EC50 worked out at 0.12 ± 0.042 µM.
Turning to `CCOC(=O)C(Cc1ccccc1)NP(=O)(COc1ccc(CC(NC(=O)OC2COC3OCCC23)C(O)CN(CC(C)C)S(=O)(=O)c2ccc(OC)cc2)cc1)NC(Cc1ccccc1)C(=O)OCC` (stereo not shown) [Example 16i], the half-maximal effective concentration (EC50) came out at 0.017 ± 0.012 µM.
On the same count and under the same terms, the same measure for `CCOC(=O)C(C)OP(=O)(O)COc1ccc(CC(NC(=O)OC2COC3OCCC23)C(O)CN(CC(C)C)S(=O)(=O)c2ccc(OC)cc2)cc1` (stereo not shown) [Met LX]: 1.75 ± 0.354 µM; for `COc1ccc(S(=O)(=O)N(CC(C)C)CC(O)C(Cc2ccc(OCP(=O)(O)NC(C)C(=O)O)cc2)NC(=O)OC2COC3OCCC23)cc1` (stereo not shown) [Met X]: more than 10 µM.

(Values after patent US20070010489A1 (priority 2002, published 2007).)
